Measurements taken from patent publication US11801247B1, “Method of treating trypanosomiasis” (KING FAISAL UNIVERSITY, priority 2023, dated 2023).
Values after ≈ are worked out from the molar mass of the structure shown. Where two headings read alike, the source gives them in different places.

Columns and labels:
[1] = system: T. equiperdum (Teq) IVM-t1; assay: Anti-trypanosomal assay (CellTiter-Glo viability); assay type: cell-based; conditions: mean ± SD
Source text: (§1) Raltitrexed was purchased from ApexBio (Houston, TX, USA), and CultureSure DMSO was obtained from Wako Pure Chemical (Osaka, Japan). T. b. brucei (Tbb) GuTat3.1, T. b. rhodesiense (Tbr) IL1501, T. b. gambiense (Tbg) IL1922 (isolated from Ivory Coast), T. evansi (Tev) Tansui (isolated from Taiwan), T. equiperdum (Teq) IVM-t1 and T. congolense (Tc) IL3000 were also obtained for this study. A 96-well Optical bottom plate was purchased from ThermoFisher […] (Waltham, MA, USA). CellTiter-Glo Luminescent cell viability reagent and GloMax plate reader were purchased from Promega Corporation (Fitchburg, WI, USA). Hiram's modified Isocove's Dulbecco's medium (HMI-9), HEPES, pyruvic acid sodium salt, BSA, thymidine, 2-mercaptoethanol, L-cysteine, bathocuproine and hypoxanthine were purchased from Sigma-Aldrich (Tokyo, Japan). A basic plate shaker was obtained from IKA® JAPAN (K.K., Osaka, Japan).
(§2) The trypanocidal activity of raltitrexed was evaluated. The trypanosomes were cultured at 37° C. for Tbb, Tbg, Tbr, Teq and Tev and 33° C. for Tc in an incubator at 5% CO2 using HMI-9 supplemented with 20% heat-inactivated fetal calf serum, 60 mM HEPES, 10 μg/L insulin, 0.1 mM bathocuproine, 5.5 μg/L transferrin, 1 mM pyruvic acid sodium salt, 1 mM hypoxanthine, 16 μM thymidine, 6.7 ng/L sodium selenite, 0.0001% 2-$-mercaptoethanol, 2 mM L-cysteine and 0.4 g/L BSA. Trypanosomes were subcultured every two days. Raltitrexed was dissolved in DMSO:H2O (1:10, v/v). The effect of the solvent was assessed to be negligible on the parasite.
(§3) Initially, raltitrexed was examined at two concentrations of 25 and 0.25 μg/ml to check the possible extended spectrum opportunities against six trypanosomes. […] This range was effective in the accurate estimation of the IC50 of the compound. After three days of cultivation, 25 μL of CellTiter-Glo Luminescent cell viability reagent were aliquoted into each well, and the plate was shaken for 500 shakes/min by an MS3 basic plate shaker for 30 s to facilitate cell lysis and release intracellular ATP. After mixing, the bioluminescence of each well was measured using a Glomax plate reader.

[2] = system: T. b. gambiense (Tbg) IL1922; assay: Anti-trypanosomal assay (CellTiter-Glo viability); assay type: cell-based; conditions: TbgIL1922, mean ± SD
Source text: as §1, §2, §3

[3] = system: T. b. rhodesiense (Tbr) IL1501; assay: Anti-trypanosomal assay (CellTiter-Glo viability); assay type: cell-based; conditions: TbrIL1501, mean ± SD
Source text: as §1, §2, §3

[4] = system: T. congolense (Tc) IL3000; assay: Anti-trypanosomal assay (CellTiter-Glo viability); assay type: cell-based; conditions: TcIL3000
Source text: as §1, §2, §3

[5] = system: T. b. brucei (Tbb) GuTat3.1; assay: Anti-trypanosomal assay (CellTiter-Glo viability); assay type: cell-based; conditions: TbbGUTat3.1, mean ± SD
Source text: as §1, §2, §3

[6] = system: T. evansi (Tev) Tansui; assay: Anti-trypanosomal assay (CellTiter-Glo viability); assay type: cell-based; conditions: mean ± SD
Source text: as §1, §2, §3

[7] = target: TS activity of TbDHFR-TS (Trypanosoma brucei brucei, UniProt Q27783); conditions: cited from earlier work
[8] = system: six Trypanosoma species; assay: Anti-trypanosomal assay, six trypanosomes taken together; assay type: cell-based
Source text: as §1, §2
Initially, raltitrexed was examined at two concentrations of 25 and 0.25 μg/ml to check the possible extended spectrum opportunities against six trypanosomes. […] This range was effective in the accurate estimation of the IC50 of the compound. […] After mixing, the bioluminescence of each well was measured using a Glomax plate reader.

[9] = system: T. brucei; conditions: cited from earlier work; for potency against T. brucei: thymidine and folate-deficient medium
[10] = target: DHFR activity of TbDHFR-TS (Trypanosoma brucei brucei, UniProt Q27783); conditions: cited from earlier work
DHFR activity of TbDHFR-TS, sequence (Q27783 whole entry): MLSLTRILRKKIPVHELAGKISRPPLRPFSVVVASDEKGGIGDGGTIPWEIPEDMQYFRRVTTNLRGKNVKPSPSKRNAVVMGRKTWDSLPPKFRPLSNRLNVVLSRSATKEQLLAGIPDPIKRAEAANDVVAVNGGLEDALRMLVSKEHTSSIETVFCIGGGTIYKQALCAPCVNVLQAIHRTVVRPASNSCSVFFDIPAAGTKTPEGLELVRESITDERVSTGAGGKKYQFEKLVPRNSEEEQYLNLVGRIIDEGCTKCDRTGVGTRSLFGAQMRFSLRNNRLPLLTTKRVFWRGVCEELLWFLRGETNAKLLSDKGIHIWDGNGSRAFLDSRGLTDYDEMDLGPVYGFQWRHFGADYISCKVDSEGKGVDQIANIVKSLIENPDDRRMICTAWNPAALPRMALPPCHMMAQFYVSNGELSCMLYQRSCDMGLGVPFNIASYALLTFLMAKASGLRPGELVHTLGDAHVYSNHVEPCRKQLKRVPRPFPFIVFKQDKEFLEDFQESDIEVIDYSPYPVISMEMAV

TS activity of TbDHFR-TS, sequence (Q27783 whole entry): as above

Cc1nc2ccc(CN(C)c3ccc(C(=O)N[C@@H](CCC(=O)O)C(=O)O)s3)cc2c(=O)[nH]1 [Raltitrexed]
Inhibition Rate at 25 μg/mL ([1]; 25 μg/mL): 99.8 ± 0.027%
inhibition at 0.25 µg/mL ([1]; Trypanosoma equiperdum, 0.25 μg/mL, read-out: Inhibition Rate at 0.25 μg/mL): 0%
inhibition at 25 µg/mL ([1]; Trypanosoma equiperdum, 25 μg/mL, read-out: Inhibition Rate at 25 μg/mL): > 99%
Inhibition Rate at 25 μg/mL ([2]; 25 μg/mL): 99.6 ± 0.33%
inhibition at 0.25 µg/mL ([2]; Trypanosoma brucei, GAMBIENSE, 0.25 μg/mL, read-out: Inhibition Rate at 0.25 μg/mL): 0%
inhibition at 25 µg/mL ([2]; Trypanosoma brucei, GAMBIENSE, 25 μg/mL, read-out: Inhibition Rate at 25 μg/mL): > 99%
Inhibition Rate at 25 μg/mL ([3]; 25 μg/mL): 99.68 ± 0.16%
inhibition at 0.25 µg/mL ([3]; Trypanosoma brucei, RHODESIENSE, 0.25 μg/mL, read-out: Inhibition Rate at 0.25 μg/mL): 1.01 ± 1.4%
inhibition at 25 µg/mL ([3]; Trypanosoma brucei, RHODESIENSE, 25 μg/mL, read-out: Inhibition Rate at 25 μg/mL): > 99%
Inhibition Rate at 25 μg/mL ([4]; 25 μg/mL, mean ± SD): low trypanocidal rate
IC50 ([4]; Trypanosoma congolense, 72 h, three days of cultivation): > 25 µg/mL
inhibition at 0.25 µg/mL ([4]; Trypanosoma congolense, 0.25 μg/mL, mean ± SD, read-out: Inhibition Rate at 0.25 μg/mL): 0%
inhibition at 25 µg/mL ([4]; Trypanosoma congolense, 25 μg/mL, mean ± SD, read-out: Inhibition Rate at 25 μg/mL): 1.77 ± 2.5%
Inhibition Rate at 25 μg/mL ([5]; 25 μg/mL): 99.47 ± 0.07%
inhibition at 0.25 µg/mL ([5]; Trypanosoma brucei, 0.25 μg/mL, read-out: Inhibition Rate at 0.25 μg/mL): 0%
inhibition at 25 µg/mL ([5]; Trypanosoma brucei, 25 μg/mL, read-out: Inhibition Rate at 25 μg/mL): > 99%
inhibition at 0.25 µg/mL ([6]; 0.25 μg/mL, read-out: Inhibition Rate at 0.25 μg/mL): 0%
Inhibition Rate at 25 μg/mL ([6]; 25 μg/mL): 99.9 ± 0.12%
inhibition at 25 µg/mL ([6]; 25 μg/mL, read-out: Inhibition Rate at 25 μg/mL): > 99%
IC50 [7]: 215 nM
trypanocidal action on all test strains ([8]; 25 μg/mL): suppressed all the test strains
IC50 ([8]; Trypanosoma, range across species, serial dilution 25 to 0.78 μg/mL, read-out: IC50 range over the Trypanosoma species): 5.18 to 24.1 µg/mL (≈ 11.3 to 52.6 µM)
IC50 ([8]; range against Trypanosoma, summary statement, read-out: estimated IC50 range): 8.88 to 22.5 µg/mL (≈ 19.4 to 49.1 µM)
effect of adding folate and thymidine on effectiveness ([9]; folate and/or thymidine added to the medium): addition of thymidine decreased the effectiveness of raltitrexed more so than the addition of folate
potency against T. brucei [9]: Nanomolar potency
IC50 [10]: 93.1 nM

CN(Cc1cnc2nc(N)nc(N)c2n1)c1ccc(C(=O)N[C@@H](CCC(=O)O)C(=O)O)cc1 [methotrexate]
potency against T. brucei [9]: Nanomolar potency

Nc1nc2[nH]cc(CCc3ccc(C(=O)N[C@@H](CCC(=O)O)C(=O)O)cc3)c2c(=O)[nH]1 [pemetrexed]
potency against T. brucei [9]: Nanomolar potency
